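Values below derive from 48-hour exposures of cells grown in 96-well plates, with endpoints linearly interpolated between the two concentrations bracketing the appropriate inhibition level. GI50 = concentration required for 50% inhibition of growth.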 The source made the active and inactive calls. Rule as the data show it: active = GI50 up to about 1.1 µM and inactive = higher.
Tests used:
Experiment in all cases: NCI tumour cell line growth inhibition, 48 h
LXFL 529 = system: LXFL 529
DLD-1 = system: DLD-1
XF498 = system: XF498
RXF 631 = system: RXF 631
DMS-114 = system: DMS-114
DMS-273 = system: DMS-273
HOP-18 = system: HOP-18
SNB-78 = system: SNB-78

Measured: GI50

CCC1(CC)C(=O)NC(=S)N=C1N
inactive: LXFL 529 > 100 µM | DLD-1 > 100 µM | XF498 > 100 µM | RXF 631 > 100 µM | DMS-114 > 100 µM | DMS-273 > 100 µM | HOP-18 > 100 µM

CC(C)[C@H](COC(C)(C)C)/N=C/N1CSc2ccccc21
inactive: LXFL 529 34.7 µM | DLD-1 48.4 µM | XF498 16.9 µM | RXF 631 27.4 µM | DMS-114 21.8 µM | DMS-273 16.8 µM | SNB-78 30 µM

ClCc1ccc(C2OCCO2)cc1
inactive: LXFL 529 17.1 µM | DLD-1 17.2 µM | XF498 18.8 µM | RXF 631 > 100 µM | DMS-114 > 24 µM | DMS-273 18.3 µM | HOP-18 37.5 µM | SNB-78 14.4 µM

CC1OC(n2cc(C(F)(F)F)c(=O)[nH]c2=O)C=CC1=O (stereo unspecified)
inactive: LXFL 529 17.1 µM | DLD-1 18.8 µM | XF498 16.6 µM | RXF 631 12.7 µM | SNB-78 15.8 µM

COc1cc2c(cc1OC)[C@@H]([C@H](O)c1ccccc1)NCC2
inactive: LXFL 529 > 100 µM | DLD-1 > 100 µM | XF498 > 100 µM | RXF 631 > 97.3 µM | DMS-114 > 100 µM | DMS-273 > 100 µM | HOP-18 > 100 µM | SNB-78 > 100 µM

COC(=O)C(=O)C(C(=O)C(=O)Nc1ccc(C)cc1C)c1nc2ccccc2nc1O (stereo unspecified)
inactive: LXFL 529 43.9 µM | DLD-1 50.7 µM | XF498 58.3 µM | RXF 631 46.7 µM | HOP-18 36 µM | SNB-78 41.6 µM

— ChEMBL document CHEMBL1201862, “PubChem BioAssay data set” (2004)
